In patent US9809808B2, “Antimicrobial agents” (KATHOLIEKE UNIVERSITEIT LEUVEN K.U. LEUVEN R&D, priority 2008, dated 2017):
“And” between values parts separate entries of the source, which are not always exact repeats. Equal values may be shown once. Read-outs that look alike come from different tables or passages of the source.

Assays:
P. putida G1 = format: cell-based, Pseudomonas putida
Escherichia coli WK6 = format: cell-based
[1] = tested on: Salmonella typhimurium LT2; format: cell-based; details: 30 minutes
[2] = tested on: Pseudomonas aeruginosa PAO1p cells; assay: Effect of different EDTA and endolysin concentrations on antibacterial activity of OBPgpLYS and PKOBPgpLYS; format: cell-based
Protocol: To determine the influence of EDTA on the antibacterial activity of unmodified and modified endolysins the antibacterial activity of the unmodified OBPgpLYS endolysin (SEQ ID NO: 7) and the PKOBPgpLYS endolysin (SEQ ID NO: 61) was tested on Pseudomonas aeruginosa PAO1p cells ([…] et al. J Clin Microbiol., 41(3):1192-1202 (2003)) using different concentrations of EDTA and endolysins. Exponential growing bacterial cells (OD600 nm of 0.6) were 100-fold diluted to a final density of about 10^6/ml and incubated for 30 minutes at room temperature without shaking with unmodified endolysin OBPgpLYS (SEQ ID NO: 7) and modified endolysin PKOBPgpLYS (SEQ ID NO: 61). […] Thereby, the following different EDTA concentrations were used: 0 mM, 0.05 mM, 0.5 mM and 10 mM. […] After incubation cell suspensions were diluted three times (respectively 10^5-10^4-10^3 cells/ml) and 100 μl of each dilution was plated out on LB-medium. […] All samples were replicated in threefold. Averages+/-standard deviations are represented.

[3] = tested on: Burkholderia pseudomallei; format: cell-based; details: 30 minutes
P. aeruginosa Br667 = format: cell-based, Pseudomonas aeruginosa
[4] = tested on: Gram-negative strains of Table 12; format: cell-based
[5] = 1.313 μM endolysin, no EDTA, 30 minutes
[6] = 1.313 μM endolysin + 0.5 mM EDTA
[7] = 0.013 μM endolysin, 0 mM EDTA-Na2, 30 minutes
[8] = 0.013 μM endolysin, 0.5 mM EDTA-Na2, 30 minutes
[9] = 0.131 μM endolysin, 0 mM EDTA-Na2, 30 minutes
[10] = 0.131 μM endolysin, 0.5 mM EDTA-Na2, 30 minutes
[11] = 1.315 μM endolysin, 0.05 mM EDTA-Na2, 30 minutes
[12] = 1.315 μM endolysin, 0.5 mM EDTA-Na2, 30 minutes
[13] = 1.315 μM endolysin, 10 mM EDTA-Na2, 30 minutes

Substance	relative inactivation in logarithmic units (log10N0/Ni) (P. putida G1)	relative inactivation in logarithmic units (log10N0/Ni) (P. putida G1; [5])	relative inactivation in logarithmic units (log10N0/Ni) (Escherichia coli WK6)	relative inactivation in logarithmic units (log10N0/Ni) (Escherichia coli WK6; [5])	relative inactivation in logarithmic units (log10N0/Ni) [1, 6]	relative inactivation in logarithmic units (log10N0/Ni) ([1]; 1.313 μM endolysin, no EDTA)	relative inactivation in logarithmic units (log10N0/Ni) [2, 7]	relative inactivation in logarithmic units (log10N0/Ni) [2, 8]	relative inactivation in logarithmic units (log10N0/Ni) [2, 9]	relative inactivation in logarithmic units (log10N0/Ni) [2, 10]	relative inactivation in logarithmic units (log10N0/Ni) [2, 11]	relative inactivation in logarithmic units (log10N0/Ni) [2, 12]	relative inactivation in logarithmic units (log10N0/Ni) [2, 13]	relative inactivation in logarithmic units (log10N0/Ni) [3, 6]	relative inactivation in logarithmic units (log10N0/Ni) ([3]; 1.313 μM endolysin, no EDTA)	relative inactivation in logarithmic units (log10N0/Ni) (P. aeruginosa Br667)	relative inactivation in logarithmic units (log10N0/Ni) (P. aeruginosa Br667; [5])	also measured
OBPgpLYS: SEQ ID NO: 7: unmodified modular endolysin of 328 amino acid residues originating from Pseudomonas putida phage OBP	4.891 +/− 0.000 logarithmic units	0.141 +/− 0.027 logarithmic units	1.179 +/− 0.200 logarithmic units	0.681 +/− 0.032 logarithmic units	0.774 +/− 0.052 logarithmic units	0.076 +/− 0.011 logarithmic units	0.956 +/− 0.110 log units	4.626 +/− 0.287 log units	2.158 +/− 0.027 log units	4.599 +/− 0.275 log units	2.762 +/− 0.091 log units	4.357 +/− 1.857 log units	4.888 +/− 0.275 log units	4.08 +/− 0.301 logarithmic units	0.997 +/− 0.131 logarithmic units	3.144 +/− 0.223 logarithmic units	1.082 +/− 0.083 logarithmic units	–
PKOBPgpLYS: SEQ ID NO: 61: OBPgpLYS (SEQ ID NO: 7) with N-terminal peptide stretch KRKKRKKRK (SEQ ID NO: 11)	>4.891 logarithmic units	0.904 +/− 0.079 logarithmic units	1.695 +/− 0.147 logarithmic units	1.434 +/− 0.018 logarithmic units	0.908 +/− 0.037 logarithmic units	0.127 +/− 0.013 logarithmic units	0.992 +/− 0.181 log units	5.204 +/− 0.000 log units	2.529 +/− 0.184 log units	5.671 +/− 0.000 log units	4.145 +/− 0.015 log units	> 5.69 log units and >5.687 log units	> 5.69 log units and >5.687 log units	>4.861 logarithmic units	1.806 +/− 0.287 logarithmic units	5.272 +/− 0.573 logarithmic units	1.163 +/− 0.063 logarithmic units	effect compared to unmodified OBPgpLYS (in words) [4]: added effect; interaction with EDTA (in words) [4]: clear synergistic effect; Δ, difference of activity between OBPgpLYS and PKOBPgpLYS samples ([2]; 0.013 μM endolysin, 0 mM EDTA-Na2): 0.036 log units; Δ, difference of activity between OBPgpLYS and PKOBPgpLYS samples ([2]; 0.013 μM endolysin, 0.5 mM EDTA-Na2): 0.578 log units; Δ, difference of activity between OBPgpLYS and PKOBPgpLYS samples ([2]; 0.131 μM endolysin, 0 mM EDTA-Na2): 0.371 log units; Δ, difference of activity between OBPgpLYS and PKOBPgpLYS samples ([2]; 0.131 μM endolysin, 0.5 mM EDTA-Na2): 1.072 log units; Δ, difference of activity between OBPgpLYS and PKOBPgpLYS samples ([2]; 1.315 μM endolysin, 0 mM EDTA-Na2): 0.5 log units and 0.548 log units; relative inactivation in logarithmic units (log10N0/Ni) ([2]; 1.315 μM endolysin, 0 mM EDTA-Na2, 30 minutes): 3.079 +/− 0.015 log units; Δ, difference of activity between OBPgpLYS and PKOBPgpLYS samples ([2]; 1.315 μM endolysin, 0.05 mM EDTA-Na2): 1.383 log units; Δ, difference of activity between OBPgpLYS and PKOBPgpLYS samples ([2]; 1.315 μM endolysin, 0.5 mM EDTA-Na2): >1.330 log units; Δ, difference of activity between OBPgpLYS and PKOBPgpLYS samples ([2]; 1.315 μM endolysin, 10 mM EDTA-Na2): >0.799 log units
